Residues, ends and D or L forms follow the SMILES beside them. No end group written: not given here.
Experiments:
[1] = system: Pseudomonas aeruginosa ATCC 9027; experiment: Antimicrobial assay I, MIC by OD measurement; type: cell-based; conditions: 37° C. for 24 hours, absorbance 620 nm
[2] = system: Staphylococcus aureus ATCC 6538; experiment: Antimicrobial assay I, MIC by OD measurement; type: cell-based; conditions: 37° C. for 24 hours, absorbance 620 nm
[3] = system: yeast (Saccharomyces cerevisiae); experiment: Antimicrobial assay I, yeast assay in RPMI 1640; type: cell-based; conditions: RPMI 1640 media
BMKC = experiment: Anti-cancer assay, MTT, LD50; type: cell-based; conditions: BMKC cloned melanoma line, 24 hours with peptide
Text: (§1) Numbers are LD50 values (μg/mL).

H1299 = experiment: Anti-cancer assay, MTT, LD50; type: cell-based; conditions: 24 hours with peptide, lung large cell carcinoma
Text: as §1

HeLaS3 = experiment: Anti-cancer assay, MTT, LD50; type: cell-based; conditions: 24 hours with peptide, cervical carcinoma
Text: as §1

MCF7 = experiment: Anti-cancer assay, MTT, LD50; type: cell-based; conditions: MCF7 breast adenocarcinoma line, MTT, 24 hours with peptide
Text: as §1

PC3 = experiment: Anti-cancer assay, MTT, LD50; type: cell-based; conditions: 24 hours with peptide, prostate adenocarcinoma
Text: as §1

SW480 = experiment: Anti-cancer assay, MTT, LD50; type: cell-based; conditions: SW480 colon adenocarcinoma line, 24 hours with peptide
Text: as §1

[4] = system: human red blood cells (RBC); experiment: in vitro; type: cell-based; conditions: hemolytic assay, concentration at 50% hemolysis, 1 hour at 37° C.
WI38 = conditions: MTT, 24 hours with peptide; for WI38 LD50: normal fibroblast line; for LD50 WI38: WI38 normal lung fibroblast line

Row | Compound | paerug9027 (MIC) [1] | staph6538 (MIC) [2] | yeast (MIC or MFC) [3] | LD50 BMKC (BMKC) | H1299 LD50 (H1299) | HeLaS3 LD50 (HeLaS3) | LD50 MCF7 (MCF7) | PC3 LD50 (PC3) | LD50 SW480 (SW480) | LD50 [4] | WI38 LD50 (WI38) | LD50 WI38 (WI38)
1 | CC(C)C[C@H](NC(=O)[C@H](C)NC(=O)[C@@H](N)Cc1ccccc1)C(=O)N[C@@H](C)C(N)=O [P183, FALA-NH2] (H-FALA-NH2; N-terminus assumed) | 100 µg/mL | 200 µg/mL | 200 µg/mL | > (> indicates greater than 1000) | > (> indicates greater than 1000) | > (> indicates greater than 1000) | > (> indicates greater than 1000) | > (> indicates greater than 1000) | > (> indicates greater than 1000) | > (> indicates greater than 1000) | > (> indicates greater than 1000) | > (> indicates greater than 1000)
2 | FAFAKIIAKIAKKII-NH2 [P140] | > (> indicates greater than 200 μg/mL) | > (> indicates greater than 200 μg/mL) | > (> indicates greater than 200 μg/mL) | > (> indicates greater than 1000) | > (> indicates greater than 1000) | 285 µg/mL | > (> indicates greater than 1000) | > (> indicates greater than 1000) | > (> indicates greater than 1000) | > (> indicates greater than 1000) | > (> indicates greater than 1000) | > (> indicates greater than 1000)
3 | FAFGKGIGKVGKKLL-NH2 [P133] | > (> indicates greater than 200 μg/mL) | > (> indicates greater than 200 μg/mL) | > (> indicates greater than 200 μg/mL) | > (> indicates greater than 1000) | > (> indicates greater than 1000) | > (> indicates greater than 1000) | > (> indicates greater than 1000) | > (> indicates greater than 1000) | > (> indicates greater than 1000) | > (> indicates greater than 1000) | > (> indicates greater than 1000) | > (> indicates greater than 1000)
4 | FAKAIAKIAFGKGIGKVGKKLL-NH2 [P134] | > (> indicates greater than 200 μg/mL) | 100 µg/mL | 200 µg/mL | > (> indicates greater than 1000) | > (> indicates greater than 1000) | > (> indicates greater than 1000) | > (> indicates greater than 1000) | > (> indicates greater than 1000) | 740 µg/mL | > (> indicates greater than 1000) | > (> indicates greater than 1000) | > (> indicates greater than 1000)
5 | FAKGVGKVGKKAL-NH2 [P137, FAKGVGKVGKKAL-NH2] | > (> indicates greater than 200 μg/mL) | > (> indicates greater than 200 μg/mL) | > (> indicates greater than 200 μg/mL) | > (> indicates greater than 1000) | > (> indicates greater than 1000) | > (> indicates greater than 1000) | > (> indicates greater than 1000) | > (> indicates greater than 1000) | > (> indicates greater than 1000) | > (> indicates greater than 1000) | > (> indicates greater than 1000) | > (> indicates greater than 1000)
6 | FAKIIAKIAKKI-NH2 [P143] | 50 µg/mL | 100 µg/mL | 200 µg/mL | > (> indicates greater than 1000) | > (> indicates greater than 1000) | > (> indicates greater than 1000) | > (> indicates greater than 1000) | > (> indicates greater than 1000) | > (> indicates greater than 1000) | > (> indicates greater than 1000) | > (> indicates greater than 1000) | > (> indicates greater than 1000)
7 | FAKKALKALKKL-NH2 [P47] | 100 µg/mL | 200 µg/mL | 50 µg/mL | 700 µg/mL | > (> indicates greater than 1000) | > (> indicates greater than 1000) | 575 µg/mL | > (> indicates greater than 1000) | > (> indicates greater than 1000) | > (> indicates greater than 1000) | > (> indicates greater than 1000) | > (> indicates greater than 1000)
8 | FAKKLAKALL-NH2 [P58] | 100 µg/mL | 100 µg/mL | 200 µg/mL | > (> indicates greater than 1000) | > (> indicates greater than 1000) | > (> indicates greater than 1000) | > (> indicates greater than 1000) | > (> indicates greater than 1000) | > (> indicates greater than 1000) | > (> indicates greater than 1000) | > (> indicates greater than 1000) | > (> indicates greater than 1000)
9 | FAKKLAKKAKLAKKL-NH2 [P77] | 100 µg/mL | 200 µg/mL | 200 µg/mL | 125 µg/mL | > (> indicates greater than 1000) | > (> indicates greater than 1000) | > (> indicates greater than 1000) | > (> indicates greater than 1000) | > (> indicates greater than 1000) | > (> indicates greater than 1000) | > (> indicates greater than 1000) | > (> indicates greater than 1000)
10 | FAKKLAKLAKKL-NH2 [P106] | 25 µg/mL | 100 µg/mL | 100 µg/mL | 690 µg/mL | 920 µg/mL | 700 µg/mL | 620 µg/mL | > (> indicates greater than 1000) | 570 µg/mL | > (> indicates greater than 1000) | > (> indicates greater than 1000) | > (> indicates greater than 1000)
11 | FAKKLKKLAKKL-NH2 [P79] | 200 µg/mL | 100 µg/mL | 100 µg/mL | 830 µg/mL | > (> indicates greater than 1000) | > (> indicates greater than 1000) | 540 µg/mL | > (> indicates greater than 1000) | > (> indicates greater than 1000) | > (> indicates greater than 1000) | > (> indicates greater than 1000) | > (> indicates greater than 1000)
12 | FAKLF-NH2 [P129, FAKLF-NH2] | 25 µg/mL | 100 µg/mL | 100 µg/mL | > (> indicates greater than 1000) | 790 µg/mL | 550 µg/mL | > (> indicates greater than 1000) | > (> indicates greater than 1000) | 550 µg/mL | > (> indicates greater than 1000) | > (> indicates greater than 1000) | > (> indicates greater than 1000)
13 | FAKLFAKAFKKAL-NH2 [P117, FAKLFAKAFKKAL-NH2] | 200 µg/mL | 100 µg/mL | 200 µg/mL | > (> indicates greater than 1000) | > (> indicates greater than 1000) | > (> indicates greater than 1000) | > (> indicates greater than 1000) | > (> indicates greater than 1000) | > (> indicates greater than 1000) | > (> indicates greater than 1000) | > (> indicates greater than 1000) | > (> indicates greater than 1000)
14 | YAKLLAKLAKKAL-NH2 [P155, YAKLLAKLAKKAL-NH2] | > (> indicates greater than 200 μg/mL) | > (> indicates greater than 200 μg/mL) | > (> indicates greater than 200 μg/mL) | > (> indicates greater than 1000) | > (> indicates greater than 1000) | > (> indicates greater than 1000) | > (> indicates greater than 1000) | – | > (> indicates greater than 1000) | > (> indicates greater than 1000) | > (> indicates greater than 1000) | > (> indicates greater than 1000)
